In US20120302636A1, “METHOD OF TREATING A DISORDER ASSOCIATED WITH MTP” (priority 2009, published 2012):
Read-outs that look alike come from different tables or passages of the source.

Experiments:
[1] = Example 6: pharmacokinetics; type: in vivo, human
Description: Originally, the study was planned as 4 sequential cohorts of healthy male Caucasian subjects (Cohorts 1 to 4) followed by a cohort of male Caucasian patients with elevated triglycerides (HTG patients, Cohort 5). An additional cohort of healthy male Caucasian subjects (Cohort 4.1) was enrolled into the study (6 cohorts in total). The cohorts were as follows: Cohorts 1 to 4.1 had healthy Caucasian males, aged 18-45 years with a body weight of 60-100 kg and body mass index (BMI) between 19-28 kg/m^2 at screening and fasting triglycerides less than 1.69 mmol/L (less than 150 mg/dL) at the screening visit and Day-3. Cohort 5 had Caucasian males, aged 18-50 years with a body weight of 60-115 kg and BMI less than 35 kg/m^2 at screening and with elevated fasting triglycerides (TG≧1.69 mmol/L and <5.62 mmol/L; ≧150 mg/dL and <500 mg/dL) at the screening visit and Day-3.
The planned treatment for Cohorts 1 to 4 was twice daily administration of 5 mg, 10 mg or 15 mg the compound of formula (I)/placebo, or once daily administration of 30 mg the compound of formula (1)/placebo. […] As only the compound of formula (I) 5 mg capsules were supplied for this study, doses were administered once daily to determine the maximum tolerated dose, and the planned doses for each subsequent cohort were amended based on the safety and tolerability data obtained from the preceding cohort. The dose level and dosing schedule planned for the patients in Cohort 5 was determined by the maximum tolerated dose and dosing schedule as reported from the planned Cohorts 1 to 4.1.
Twelve healthy male Caucasian subjects were enrolled in each of Cohorts 1 to 4.1; dose cohorts were randomized in a ratio 9:3 to receive the compound of formula (I) or placebo, respectively, at the dose level associated with that cohort. Twelve male Caucasian patients with elevated triglycerides were randomized in a ratio of 8:4 to receive the compound of formula (I) or placebo, respectively, at the maximum tolerated dose level and dosing schedule.

[2] = Example 5: pharmacokinetics; type: in vivo, human
Experimental: Fifty-two Japanese patients with hyperlipidemia (LDL-C between 140 and 220 mg/dL; TG≦400 mg/dL) participated in the study. […] One group received a fixed dose of 2 mg per tablet through the entire study. The other group received escalating doses of 0.5 mg (weeks 1-4), 1 mg (weeks 5-8), and 2 mg (weeks 9-12). For the efficacy analysis, 50 subjects were observed (25 in the fixed-dose group and 25 in the dose escalation group).
The objective of this study was preliminary evaluation of the efficacy (based on serum lipid levels), safety, and pharmacokinetics of the compound of formula (I) administered orally twice daily after breakfast and supper for 12 weeks as a fixed dose (4 mg/day) or escalating dose (1 mg/day, 2 mg/day and 4 mg/day) regimen in patients with hyperlipidemia.

MTP = MTP (Homo sapiens, UniProt P55157)
[3] = Example 7: ascending dose study in obese subjects, pharmacokinetics
Experimental: This example involved a clinical study of the compound of formula (I), which was a randomized, double-blind, placebo-controlled, ascending dose study to evaluate the safety, tolerability and pharmacokinetics/pharmacodynamics of the compound of formula (I) tablets administered twice daily for two weeks in obese subjects.
The subjects were separated into four arms of nine (one with ten) test subjects (which were administered the compound of formula (I)) and three placebo subjects.

[4] = Example 1: plasma and urine concentrations by LC/MS/MS
[5] = in vivo
Description: This example involved a clinical study of the compound of formula (I), which was a randomized, double-blind, placebo-controlled, parallel group study to evaluate the efficacy of the compound of formula (I) administered twice daily for twelve weeks in obese subjects.

[6] = Example 3: pharmacokinetics; type: in vivo, human; details: both active groups
[7] = Example 2: plasma and urine pharmacokinetics; type: in vivo, human
Experimental: Each tablet contained 5 mg (BID), 10 mg (QD), 20 mg (QD), or 30 mg (QD).

Sequence of MTP (P55157 19-894, species assumed): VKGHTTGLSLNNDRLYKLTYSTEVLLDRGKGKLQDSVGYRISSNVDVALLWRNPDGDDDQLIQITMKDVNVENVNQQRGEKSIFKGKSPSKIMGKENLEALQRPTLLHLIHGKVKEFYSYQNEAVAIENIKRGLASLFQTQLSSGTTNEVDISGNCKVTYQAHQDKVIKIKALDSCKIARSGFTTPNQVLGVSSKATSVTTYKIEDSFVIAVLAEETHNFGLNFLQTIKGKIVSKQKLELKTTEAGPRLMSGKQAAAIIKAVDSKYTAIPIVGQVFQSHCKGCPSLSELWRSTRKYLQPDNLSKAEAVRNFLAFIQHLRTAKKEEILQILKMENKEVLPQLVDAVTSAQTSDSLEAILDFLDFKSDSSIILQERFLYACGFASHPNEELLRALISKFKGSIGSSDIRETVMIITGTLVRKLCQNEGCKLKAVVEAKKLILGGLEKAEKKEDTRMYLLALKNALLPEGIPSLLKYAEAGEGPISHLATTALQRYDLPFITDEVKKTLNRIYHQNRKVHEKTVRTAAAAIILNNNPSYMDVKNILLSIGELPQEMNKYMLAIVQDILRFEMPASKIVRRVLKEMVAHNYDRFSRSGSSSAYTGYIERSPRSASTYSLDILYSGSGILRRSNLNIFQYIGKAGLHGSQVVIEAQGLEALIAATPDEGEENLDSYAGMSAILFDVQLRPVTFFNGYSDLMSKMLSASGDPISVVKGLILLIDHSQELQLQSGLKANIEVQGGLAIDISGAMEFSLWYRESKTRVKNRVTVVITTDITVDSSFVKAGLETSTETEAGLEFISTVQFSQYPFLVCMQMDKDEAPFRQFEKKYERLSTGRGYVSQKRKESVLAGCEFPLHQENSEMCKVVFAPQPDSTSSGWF
Sequence of MTP (P07237 18-508 partner, species assumed): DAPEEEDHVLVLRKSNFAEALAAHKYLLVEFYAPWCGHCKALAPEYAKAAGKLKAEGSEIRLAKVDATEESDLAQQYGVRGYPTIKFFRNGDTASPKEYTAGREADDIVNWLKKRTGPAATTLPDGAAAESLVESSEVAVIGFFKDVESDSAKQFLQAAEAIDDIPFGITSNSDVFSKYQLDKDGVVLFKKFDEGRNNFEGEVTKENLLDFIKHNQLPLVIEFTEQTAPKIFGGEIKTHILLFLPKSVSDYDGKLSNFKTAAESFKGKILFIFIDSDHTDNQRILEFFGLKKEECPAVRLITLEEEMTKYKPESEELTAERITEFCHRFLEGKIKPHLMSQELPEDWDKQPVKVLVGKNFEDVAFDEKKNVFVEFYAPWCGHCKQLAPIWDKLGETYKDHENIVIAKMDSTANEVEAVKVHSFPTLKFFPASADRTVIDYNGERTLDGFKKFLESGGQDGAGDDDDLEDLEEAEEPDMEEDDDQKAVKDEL

For `CN(C)C(=O)c1cc(CC(=O)O)ccc1NC(=O)c1ccccc1-c1ccc(C(F)(F)F)cc1` [metabolite M1, 2-(3-(dimethylcarbamoyl)-4-(4′-(trifluoromethyl)biphenyl-2-ylcarboxamido)phenyl)acetic acid], the “mean apparent terminal half-life” value ([1]; 5 mg BID, healthy) was “approximately 27 h”, the “systemic availability (AUC0-τ and Cmax) in patients vs subjects with normal triglycerides” value ([1]; 5 mg, Cohort 5 vs Cohort 1) was “appeared to be greater” and the “mean apparent terminal half-life” value ([1]; 5 mg, HTG patients) was “approximately 30 h”. The time to steady-state ([1]; 5 to 20 mg QD and BID, healthy subjects and patients) was about 8 days, the “extent of systemic exposure, dose proportionality” value ([1]; 5 to 20 mg QD, healthy) was “greater than dose-proportional” and the “urinary recovery up to 72 h post-last dose” value ([1]; 14 days administration, adjusted for molecular weight) was “up to 20 % of the total administered dose”. For the same compound, the urinary recovery ([1]; first administration) was “less than 8 % of the administered dose”, the “mean Cmin” value ([2]; dose escalation group, Week 10) was 12.15 ng/mL and the “mean Cmin” value ([2]; dose escalation group, Week 10, females) was 12.06 ng/mL. For the same compound, the “mean Cmin” value ([2]; dose escalation group, Week 10, males) was 12.28 ng/mL, the “mean Cmin” value ([2]; dose escalation group, Week 12) was 13.47 ng/mL and the “mean Cmin” value ([2]; dose escalation group, Week 12, females) was 15.28 ng/mL. The “mean Cmin” value ([2]; dose escalation group, Week 12, males) was 10.76 ng/mL, the “mean Cmin” value ([2]; fixed-dose group, Week 10) was 12.20 ng/mL and the “mean Cmin” value ([2]; fixed-dose group, Week 12) was 10.74 ng/mL. The MTP inhibitory activity (MTP) was “no MTP inhibitory activity”, the MTP inhibitory activity (MTP; listed as M1) was “inactive” and the “mean t1/2” value ([3]; 1 mg group) was 70.1 h. The “time to reach steady-state” value ([3]; 1 and 2.5 mg groups) was 7 days, the “Cmax and AUC0-τ dose proportionality (M1)” value ([3]; 1 to 5 mg) was “dose proportional increase” and the “time to reach steady-state” value ([3]; 3.5 and 5 mg groups) was 5 days. The “mean Cmin” value ([4]; 5 mg group, Day 2) was 8.33 ng/mL, the “mean Cmin” value ([4]; 5 mg group, Day 6) was 25.97 ng/mL and the “mean Cmin relative to Day 2” value ([4]; 5 mg group, Day 6) was 3.12 times. The “mean Cmin” value ([4]; 15 mg group, Day 2) was 33.57 ng/mL, the “mean Cmin” value ([4]; 15 mg group, Day 8) was 181.90 ng/mL and the “mean Cmin relative to Day 2” value ([4]; 15 mg group, Day 8) was 5.42 times. The “excretion in urine (metabolite)” value ([4]; 5 and 15 mg groups) was “excreted in urine in all subjects”, the “detection of metabolite in plasma” value ([4]; all subjects receiving compound) was “detected in plasma of all subjects” and the “mean trough concentration of M1” value [5] was “increased in a dose-related manner”. The “plasma metabolite M1” value [6] was “quantifiable”, the “Cmax and AUC0-24hr dose proportionality (M1)” value ([7]; 10, 20, 30 mg QD, initial dose Day 1) was “greater than a dose-proportional” and the “Cmin of the metabolite M1” value ([7]; Day 2 to 14, all groups) was “quantifiable”. For the same compound, the “plasma metabolite M1” value ([7]; after initial dose on Day 1, all groups) was “quantifiable”, the “metabolite M1 in urine” value ([7]; all groups) was “excreted in urine” and the “Cmax and AUC dose proportionality (M1)” value ([7]; final dose on Day 14) was “dose-proportional”.
